{"source": "patent US20230101743A1", "about": "“SUBSTITUTED TRIAZINE COMPOUNDS AND USES THEREOF” (MUSC FOUNDATION FOR RESEARCH DEVELOPMENT, priority 2020, published 2023)", "test_system": "apolipoprotein B (APOB-100)", "experiment": "Secreted APOB ELISA in human iPSC-derived hepatocyte-like cells", "type": "cell-based", "protocol": "D. Human iPSC-derived hepatocytes were treated with DL-1 with concentrations ranging from 0.0325 to 12 or 48 μg/mL for 24 hours. Pre-drug and Post-drug medium were collected for analysis. Albumin and APOB levels were determined via ELISA assay. All secreted proteins were compared to non-treated cells. […] Data are shown as mean±SEM of four replicates (n=4); * p<0.01.\nE. Human iPSC-derived hepatocytes were treated with 2 μg/mL of DL-1 from 8 to 48 hours. Albumin, APOPA, and APOB level in the culture medium were determined via ELISA. All secreted proteins were compared to non-treated cells. In FIG. 5, accumulated APOB in the medium from different time-point was measured and normalized to albumin level. […]\nF. Twenty-one compounds that are structurally similar to DL-1 were tested with the concentration of 2 μg/mL in human iPSC-derived hepatocytes for 24 hours. Secreted APOB levels were determined and compared to the DMSO-treated group. […] Data is shown as mean±SEM of replicates (n=8) and as quantification value of each derivative. […]\nDifferentiated human hepatocyte-like cells were treated with representative compounds of the invention (2 μg/mL) or equivalent amount of DMSO (0.5%) as the placebo group for 24 hours. […] The secreted level of apolipoprotein B (APOB-100), the core protein of LDL-C, were determined via enzyme-linked immunosorbent assay (ELISA). […]"}
{"smiles": "Sc1nc(S)nc(Nc2ccc(Nc3ccccc3)cc2)n1", "note": "(racemic) [DL-1, 6-{[4-(phenylamino)phenyl]amino}-1,3,5-triazine-2,4-dithiol]", "values": [{"measurement": "APOB level in culture medium, time course", "setting": "2 μg/mL, 8 to 48 hours", "value": "reduces APOB level in a time-dependent manner"}, {"measurement": "APOB secretion level, dose-response", "setting": "0.0325 to 12 or 48 μg/mL, 24 hours", "value": "reduces APOB secretion level in a dose-response manner"}]}
